In US10766864B2, “Morphinan derivatives for the treatment of neuropathic pain” (Nektar Therapeutics, priority 2015, dated 2020):
Read-outs that look alike come from different tables or passages of the source.

What was measured:
[1] = test system: rat formalin paw model of persistent pain; assay: Automated formalin paw test, oral administration; type: in vivo; conditions: at at least one dosage between 10 mg/kg and 300 mg/kg (inclusive), in the presence of 1-aminobenzotriazole
Experimental: The in vivo efficacy of selected compounds following oral administration was measured using the rat formalin model of persistent pain. Test compounds were administered 30-60 minutes prior to injection of 5% formalin to the hind-paw of rats and paw movements were measured using the automated Nociception Analyzer (ANA Instrument; University of California, San Diego) for 60 minutes post-formalin. In some experiments, rats were pre-treated 16-22 hours priors to the experiment with the cytochrome-P450 inhibitor, 1-aminobenzotriazole (ABT), to assess the activity of compounds in the absence of significant quantities of metabolites. ED50 values (mg/kg) were calculated from non-linear regression analyses of the cumulative number of flinches in Phase II (10-60 mins) versus dose of test compounds.
In the rat formalin paw model of persistent pain, compounds 83, 113, 114 and 115 (described in Examples 83, 113, 114 and 115, respectively) were tested. In each case, the oral efficacy of the compounds was measured in the presence and absence of the cytochrome CYP-450 inhibitor, 1-aminobenzotriazole.

mu opioid receptor (MOR) = mu opioid receptor (MOR) (Homo sapiens (Human), UniProt P35372); assay: Competitive radioligand binding at MOR ([3H] Naloxone)
NMDA receptor = assay: Competitive radioligand binding at NMDA receptor ([3H] MK801), rat forebrain membranes; conditions: 0.2 nM [3H] MK801, reflects free base activity
hMOR = hMOR (Homo sapiens (Human), UniProt P35372); assay: cAMP accumulation assay (inhibition of forskolin-stimulated cAMP) in CHO-K1 cells stably expressing hMOR; type: cell-based
Experimental: Mu opioid agonist activity for selected compounds was determined by the inhibition of forskolin-stimulated cAMP accumulation following MOR activation in CHO-K1 cells stably expressing the hMOR. […] IC50 values were calculated from […] analysis of the concentration-response curves using Graph Pad Prizm.

[2] = Phase II clinical study; cited from earlier work

Row | Structure (SMILES) | oral efficacy in Phase I and Phase II of the rat formalin paw model [1] | IC50 (mu opioid receptor (MOR)) [nM] | IC50 (NMDA receptor) [nM] | IC50 (hMOR) [nM] | IC50 (hMOR; hMOR-expressing CHO-K1 cells, 10 μM forskolin, 60 minute incubation, read-out: MOR cAMP IC50) [nM] | IC50 (mu opioid receptor (MOR); membranes from CHO-K1 cells expressing MOR, 2 nM [3H] Naloxone, reflects free base activity, read-out: MOR IC50) [nM] | reduction of neuropathic pain [2] | side effects [2]
1 | COCCOCCN1CC[C@]23CCCC[C@H]2[C@H]1Cc1ccc(Nc2cccnc2)cc13 [Compound 83, 17-[2-(2-methoxyethoxy)ethyl]-N-(pyridin-3-yl)morphinan-3-amine] | statistically significant efficacy | 100 to 1000 | 1000 to 10000 | – | – | – | – | –
2 | COCCN1CC[C@]23CCCC[C@H]2[C@H]1Cc1ccc(O)cc13 [Compound 113, 3-hydroxy-17-(2-methoxyethyl)morphinan] | statistically significant efficacy | 0.1 to 10 | 100 to 1000 | 0.1 to 10 | – | – | – | –
3 | CN1CC[C@]23CCCC[C@H]2[C@H]1Cc1ccc(N)cc13 [Compound 114, 3-amino-17-morphinan] | statistically significant efficacy | 100 to 1000 | 100 to 1000 | 100 to 1000 | – | – | – | –
4 | CN1CC[C@]23CCCC[C@H]2[C@H]1Cc1cc2sc(N)nc2cc13 [Compound 115, (4aR,5R,11bR)-14-methyl-2,3,4,4a,5,6-hexahydro-1H-5,11b-(epiminoethano)phenanthro[3,2-d]thiazol-9-amine] | statistically significant efficacy | – | 0.1 to 100 | – | 10 to 100 | 10 to 100 | – | –
5 | CN1CC[C@]23CCCC[C@H]2[C@H]1Cc1ccc(O)cc13 [levorphanol, 17-Methylmorphinan-3-ol] | – | – | – | – | – | – | effective in reducing neuropathic pain | severe dose-limiting side effects
